Results reported in PMC10652874, “Investigation into the mechanism of action of the antimicrobial peptide epilancin 15X” (Frontiers in Microbiology, 2023).

System: S. carnosus TM300
Assay: RNAseq differential gene expression
Assay type: cell-based, Staphylococcus carnosus
Protocol: For the RNAseq experiments, epilancin was added at sub-lethal concentration (0.5x MIC) to S. carnosus TM300 once the cultures reached an OD600 of 0.6. RNA was extracted 40 min after the treatment, using a FastRNA Pro Blue kit (MP Biomedicals). Both treated and parallel untreated samples were collected at the same time. Sequencing was performed at the Carver Biotechnology Center (UIUC). For RNAseq analysis, gene counts were read in to R (v3.1.1; [Team, 2014]), and 14/2441 genes were removed because they had fewer than 32 total counts across the six samples. edgeR’s (v3.6.7) TMM normalization ([Robinson and Oshlack, 2010]) plus negative binomial generalized log-linear model ([McCarthy et al., 2012]) was used to test for differential expression between treated and untreated groups, while accounting for pairing of U and T replicates from three different cultures. p-values were adjusted using the false discovery rate method ([Benjamini and Hochberg, 1995]).

[1] = putative ABC transporter ATP-binding protein
[2] = putative short chain dehydrogenase
[3] = putative transcriptional regulator

## Epilancin 15X
Hypothetical protein
  fold_change Sca_1501: 2.75
  fold_change Sca_1502: 4.86
  fold_change Sca_1504: 11.43
  fold_change Sca_1505: 11.29
  fold_change Sca_1506: 11.77
  fold_change Sca_1507: 12.4
  fold_change Sca_1508: 10.53
  fold_change Sca_1509: 0.5
  fold_change Sca_1523: 2.05
  fold_change Sca_1526: 2.58
  fold_change Sca_1532: 3.3
  fold_change Sca_1533: 3.51
  fold_change Sca_1534: 2.71
  fold_change Sca_1535: 2.45
  fold_change Sca_1536: 2.13
  fold_change Sca_1587: 2.19
  fold_change Sca_1588: 2.2
  fold_change Sca_1643: 2.32
  fold_change Sca_1645: 2.04
  fold_change Sca_1650: 2.26
  fold_change Sca_1667: 3.97
  fold_change Sca_1668: 3.55
  fold_change Sca_1674: 2.34
  fold_change Sca_1675: 3.21
  fold_change Sca_1681: 2.25
  fold_change Sca_1686: 4.82
  fold_change Sca_1687: 4.15
  fold_change Sca_1689: 2.35
  fold_change Sca_1737: 2.07
  fold_change Sca_1738: 2.11
  fold_change Sca_1755: 3.06
  fold_change Sca_1788: 3.57
  fold_change Sca_1804: 5.16
  fold_change Sca_1805: 2.14
  fold_change Sca_1807: 2.04
  fold_change Sca_1815: 0.5
  fold_change Sca_1838: 2.29
  fold_change Sca_1862: 0.49
  fold_change Sca_1869: 2.26
  fold_change Sca_1903: 4.81
  fold_change Sca_1904: 2.54
  fold_change Sca_1905: 2.54
  fold_change Sca_1906: 2.34
  fold_change Sca_1917: 2.88
  fold_change Sca_1954: 2.15
  fold_change Sca_1959: 7.97
  fold_change Sca_1992: 2.15
  fold_change Sca_2001: 2.07
  fold_change Sca_2004: 2.83
  fold_change Sca_2009: 4.15
  fold_change Sca_2014: 2.23
  fold_change Sca_2018: 2.95
  fold_change Sca_2020: 2.38
  fold_change Sca_2021: 2.73
  fold_change Sca_2022: 2.89
  fold_change Sca_2023: 3.49
  fold_change Sca_2024: 8.09
  fold_change Sca_2051: 2.03
  fold_change Sca_2066: 2.09
  fold_change Sca_2098: 2.16
  fold_change Sca_2099: 2
  fold_change Sca_2122: 2.08
  fold_change Sca_2131: 4.04
  fold_change Sca_2132: 2.49
  fold_change Sca_2133: 2.15
  fold_change Sca_2136: 3
  fold_change Sca_2141: 2.34
  fold_change Sca_2182: 0.5
  fold_change Sca_2186: 2.4
  fold_change Sca_2187: 2.82
  fold_change Sca_2188: 5.77
  fold_change Sca_2193: 5.14
  fold_change Sca_2202: 2.52
  fold_change Sca_2207: 2.06
  fold_change Sca_2209: 2.42
  fold_change Sca_2213: 2.61
  fold_change Sca_2215: 3.52
  fold_change Sca_2221: 2.48
  fold_change Sca_2222: 2.24
  fold_change Sca_2226: 3.16
  fold_change Sca_2228: 3.64
  fold_change Sca_2229: 3.47
  fold_change Sca_2230: 2.6
  fold_change Sca_2231: 2.37
  fold_change Sca_2235: 2.04
  fold_change Sca_2236: 2.08
  fold_change Sca_2253: 0.5
  fold_change Sca_2268: 3.5
  fold_change Sca_2269: 3.56
  fold_change Sca_2273: 11.9
  fold_change Sca_2275: 3.1
  fold_change Sca_2284: 0.49
  fold_change Sca_2295: 4.48
  fold_change Sca_2296: 2.39
  fold_change Sca_2297: 2.21
  fold_change Sca_2299: 5.46
  fold_change Sca_2301: 2.01
  fold_change Sca_2334: 5.35
  fold_change Sca_2337: 2.1
  fold_change Sca_2358: 2.95
  fold_change Sca_2370: 2.53
  fold_change Sca_2373: 3.45
  fold_change Sca_2379: 3.04
  fold_change Sca_2384: 2.31
  fold_change Sca_2385: 3.04
  fold_change Sca_2386: 2.57
  fold_change Sca_2398: 19.58
  fold_change Sca_2399: 20.62
  fold_change Sca_2424: 2.19
  fold_change Sca_2425: 2.2
  fold_change Sca_2426: 3.85
  fold_change Sca_2435: 6.09
  fold_change Sca_2436: 5.9
  fold_change Sca_2437: 4.25
  fold_change Sca_2457: 3.07
  fold_change orf1: 2.79
  fold_change ydfG: 5.22
Hypothetical protein, gene fmhA'
  fold_change Sca_1639: 2.76
Hypothetical protein, gene fmhA''
  fold_change Sca_1638: 3.24
Iron uptake regulatory protein, gene fur
  fold_change Sca_1124: 2.1
Lipase (fragment 1), gene geh'
  fold_change geh: 2.82
Lipase (fragment 2), gene geh''
  fold_change geh': 2.62
Lysine decarboxlyase family protein
  fold_change Sca_0327: 5.96
Molecular chaperone DnaK
  fold_change dnaK: 2.67
Molybdopterin biosynthesis protein MoeA
  fold_change moeA: 2.6
molybdopterin-guanine dinucleotide biosynthesis protein MobA
  fold_change mobA: 2.6
mutT/nudix family protein
  fold_change mutT: 5.15
Phage integrase
  fold_change int: 3.38
Phosphate transporter ATP-binding protein
  fold_change pstB: 3.4
phosphopentomutase, gene drm
  fold_change deoB: 2.75
Poly D-alanine transfer protein
  fold_change dltD: 2.08
proline/betaine transporter
  fold_change proP: 2.73
Putative 2-keto-4-pentenoate hydratase
  fold_change Sca_0040: 2.87
Putative 3-methyladenine DNA glycosylase
  fold_change Sca_1843: 2.27
[1]
  fold_change Sca_0458: 3.16
  fold_change Sca_2242: 2.55
Putative ABC transporter permease
  fold_change Sca_1033: 3.26
Putative ABC-type cobalt transport system ATPase
  fold_change Sca_0699: 2.62
Putative ATP-dependent Clp proteinase chain clpL
  fold_change clpL: 7.83
Putative ATP-dependent helicase
  fold_change Sca_0398: 3.32
Putative ComK family protein
  fold_change Sca_0642: 2.73
Putative CorA-like Mg2+ transporter protein
  fold_change Sca_2395: 2.01
Putative DNA repair protein RadC, gene radC
  fold_change Sca_1264: 12.09
Putative FeS assembly protein SufB
  fold_change sufB: 3.43
Putative HNH family endonuclease, phage associated
  fold_change Sca_0476: 4.35
Putative IstB-like ATP-binding protein, phage associated
  fold_change Sca_0479: 3.51
Putative L-serine dehydratase subunit beta
  fold_change sdaB: 3.71
Putative L-serine dehydratase, iron-sulfur-dependent subunit alpha
  fold_change sdaA: 2.95
Putative MerR family transcriptional regulator
  fold_change Sca_0539: 2.12
Putative N-acetyltransferase
  fold_change Sca_0093: 2.6
Putative NAD(P)H-flavin oxidoreductase
  fold_change Sca_1976: 5.31
Putative NADH-flavin reductase
  fold_change Sca_0831: 4.42
Putative NADP-dependent oxidoreductase
  fold_change Sca_1692: 5.86
Putative NADPH oxidoreductase
  fold_change Sca_1977: 5.07
Putative Na(+)/H(+) antiporter subunit G
  fold_change Sca_2123: 2.16
Putative PTS system, IIBC components
  fold_change Sca_2138: 2.3
Putative RpiR family transcriptional regulator
  fold_change Sca_2137: 2.96
Putative Tat-translocated protein
  fold_change Sca_2214: 3.14
Putative acetoacetate decarboxylase
  fold_change adc: 2.51
Putative acid-CoA ligase
  fold_change fadE: 2.21
Putative alcohol dehydrogenase
  fold_change adhC: 2.53
Putative alcohol dehydrogenase, zinc-containing
  fold_change Sca_2013: 3.05
Putative aldehyde dehydrogenase
  fold_change aldH: 0.49
Putative aldehyde dehydrogenase family protein
  fold_change Sca_1625: 2.65
Putative alkaline shock protein
  fold_change Sca_1685: 4.53
Putative alpha-acetolactate decarboxylase
  fold_change Sca_1958: 4.48
Putative alpha/beta fold family hydrolase
  fold_change Sca_0638: 2.8
Putative alpha/beta hydrolase superfamily protein
  fold_change Sca_0872: 3.04
Putative amidohydrolase
  fold_change Sca_0567: 2.54
Putative amidophosphoribosyltransferase
  fold_change Sca_0399: 3.6
Putative amino acid transporter
  fold_change Sca_2120: 0.49
Putative antibiotic transport-associated protein
  fold_change Sca_2151: 2.04
Putative antirepressor, phage associated
  fold_change Sca_0467: 4.9
Putative branched-chain amino acid carrier
  fold_change brnQ: 0.5
Putative catalase
  fold_change katE/B: 5.7
Putative cation exporting ATPase
  fold_change Sca_0538: 5
Putative cation-efflux system membrane protein
  fold_change czrB: 9.3
Putative cell wall-anchored protein
  fold_change Sca_0867: 2.34
Putative cobalt transport system permease
  fold_change Sca_0698: 2.09
Putative copper-transporting P-type ATPase
  fold_change copA: 2.32
Putative cytochrome D ubiquinol oxidase subunit I
  fold_change Sca_0707: 2.66
Putative cytochrome D ubiquinol oxidase subunit II
  fold_change Sca_0708: 3.72
Putative dUTP pyrophosphatase, phage associated
  fold_change dut: 3.34
Putative dioxygenase
  fold_change Sca_2298: 4.81
Putative effector domain of transcriptional regulator
  fold_change Sca_0871: 3.63
Putative esterase of the alpha-beta hydrolase superfamily
  fold_change Sca_0099: 2.92
Putative formamidase
  fold_change fmdA: 5.66
Putative general stress protein
  fold_change Sca_1468: 2.39
Putative glycerate kinase
  fold_change Sca_0390: 2.11
Putative glycerophosphoryl diester phosphodiesterase
  fold_change Sca_1327: 2.21
Putative glycine betaine/carnitine/choline transport system permease
  fold_change opuCB: 2.02
Putative glycosyl transferase
  fold_change Sca_0056: 2.07
Putative glyoxylase family protein
  fold_change Sca_1969: 4.21
Putative heat-inducible transcriptional repressor
  fold_change hrcA: 3.08
Putative holin-like protein LrgA
  fold_change lrgA: 3.61
Putative holliday junction resolvase, phage associated
  fold_change Sca_0480: 3.23
Putative indole-3-pyruvate decarboxylase
  fold_change Sca_2166: 2.06
Putative intracellular protease/amidase
  fold_change Sca_0081: 5.75
Putative mannose-6-phosphate isomerase
  fold_change Sca_1648: 0.5
Putative membrane-bound sulfatase
  fold_change Sca_0366: 2.62
Putative methylated DNA-protein cysteine methyltransferase
  fold_change adaB: 2.26
Putative monovalent cation/H+ antiporter subunit A
  fold_change Sca_2129: 3.98
Putative monovalent cation/H+ antiporter subunit B
  fold_change Sca_2128: 2.49
Putative monovalent cation/H+ antiporter subunit C
  fold_change Sca_2127: 2.24
Putative monovalent cation/H+ antiporter subunit D
  fold_change Sca_2126: 2.35
Putative monovalent cation/H+ antiporter subunit E
  fold_change Sca_2125: 2.21
Putative monovalent cation/H+ antiporter subunit F
  fold_change Sca_2124: 2.43
Putative nitroreductase
  fold_change Sca_0449: 2.26
Putative oxidoreductase protein
  fold_change mocA: 5.88
Putative peptidase
  fold_change Sca_0684: 2.13
Putative peptidase (peptidase family M20/M25/M40)
  fold_change Sca_1042: 0.49
Putative phage integrase family protein
  fold_change Sca_2130: 8.35
Putative phosphate ABC transporter permease
  fold_change pstA: 3.6
Putative phosphate transport system substrate-binding protein
  fold_change Sca_1034: 3.27
Putative phosphate uptake regulator protein
  fold_change Sca_1030: 3.27
Putative phospholipase/carboxylesterase
  fold_change Sca_0075: 3.41
Putative purine regulatory protein
  fold_change Sca_0147: 2.18
Putative pyrimidine nucleoside phosphorylase
  fold_change pdp: 2.55
Putative repressor protein
  fold_change czrA: 8.56
Putative response regulator
  fold_change vraR: 8.62
Putative ribosome-associated protein
  fold_change Sca_0400: 2.26
Putative selenocysteine lyase
  fold_change csdB: 3.29
[2]
  fold_change Sca_1824: 2.61
  fold_change Sca_2218: 3.36
  fold_change Sca_2233: 2.35
Putative site-specific recombinase XerD
  fold_change xerD: 2.53
Putative sugar phosphate isomerase
  fold_change Sca_0225: 3.01
Putative thioredoxine reductase
  fold_change trxB: 2.17
Putative transcription activator of glutamate synthase operon
  fold_change gltC: 2.32
Putative transcription regulator MarR family
  fold_change Sca_1970: 3.81
Putative transcriptional activator TenA
  fold_change Sca_2227: 2.88
[3]
  fold_change Sca_0070: 5.38
  fold_change Sca_2381: 3.42
Putative transmembrane protein
  fold_change Sca_1791: 8.45
Putative transport protein
  fold_change Sca_1822: 0.49
Putative two-component response regulator
  fold_change Sca_1423: 0.49
Quinolone resistance protein NorA
  fold_change norA: 2.56
Regulatory protein SpoVG
  fold_change spoVG: 2.18
Ribonuclease P
  fold_change rnpA: 2.02
Ribosomal protein L11 methyltransferase, gene SCA_1200
  fold_change prmA: 2.07
Secretory antigen SsaA
  fold_change Sca_0809: 2.03
sodium:alanine symporter family protein
  fold_change Sca_0615: 3.14
succinate-semialdehyde dehydrogenase (NADP+), gene gabD
  fold_change Sca_2363: 2.52
tRNA (uracil-5-)-methyltransferase Gid, gene gid
  fold_change trmFO: 2.02
Thymidine kinase
  fold_change tdk: 0.49
Transcription regulator Fur family
  fold_change perR: 2.27
Transcription repressor of class III stress genes
  fold_change ctsR: 5.22
Transport system binding protein
  fold_change Sca_0964: 3.98
type-1 signal peptidase 1B
  fold_change sipB: 2.45
type-I signal peptidase
  fold_change sipA: 2.68
